Measurements as given in patent publication US6331565A, “Dicaffeoylquinic acid for treating hepatitis B and the diseases associated with retrovirus, and the new caffeoylquinic acid derivatives” (Institute of Radiation Medicine Academy of Military Medical …, priority 1996, dated 2001).
Converted amounts (≈) assume the structure as drawn. Read-outs that look alike come from different tables or passages of the source.

Columns and labels:
MT4 cells = experiment: Cytotoxicity in uninfected MT4 cells (MTT); assay type: cell-based, human; details: 1000 μg.ml^-1, MTT
Description: (§1) A human T-cell leukemia cell line. MT4 cells, was used in this study. It was maintained in RPMI-1640 medium supplemented with 10% FCS. 100 U/ml of penicillin, and 100 μg/ml of streptomycin at 37° C. in a humidified atmosphere of 5% CO2. Cell cultures were split into fresh medium every 4 days.
(§2) After 4 h, 100 μl of solvent (10% Triton X-100 and 0.4% HCl isopropanol)was added to cultures to solubilizes formazan. After an overnight incubation, the absorbency of each well was measured using a microplate reader (Bio-Rad, model 450) at 560 nm.

HIV-1 = experiment: microbe, parasite or virus in culture; details: Human immunodeficiency virus 1, MT4, in Homo sapiens, 168 h
Description: as §1
HIV-1 virus was propagated in MT4 cells. The cell-free supernatants of HIV-1 infected MT4 cell culture were used as virus stocks and frozen at -80° C. until used. The 50% tissue culture infected dose (TCID50) of the cell-free virus stock was determined by end-point titration with MT4 cells in 96-well microdilution plates.
as §2
MT4 cells in culture were counted by trypan blue exclusion method. The MT4 cells suspended in a small volume of RPMI-1640 medium without FCS and infected with HIV-1 at 200 TCID50 viruses per 10^6 cells. The mixture of MT4 cells and virus was subsequently incubated at 37° C. in a humidified atmosphere of 5% CO2 for 1 hr to allow virus to adsorbed to cells. Unabsorbed viruses were then removed by washing one with […] of the fresh medium and centrifuged at 1000 rpm for ten minutes. The cells were suspended in the medium and distributed into 12-well microculture plates (10^6 cells/3 ml/well). […] After 4-day incubation at 37° C. in a humidified atmosphere containing 5% CO2 the medium was aspirated and the fresh medium containing the same concentration of drug was added.
After 7-day incubation the viable cells was evaluated by MTT method as described above.

HBsAg = experiment: microbe, parasite or virus in culture; assay type: cell-based, HBV; details: Hepatitis B virus; for inhibition at 7.81 µg/mL / inhibition at 15.63 µg/mL / inhibition at 31.25 µg/mL / inhibition at 62.5 µg/mL / inhibition at 125 µg/mL / inhibition at 250 µg/mL: read-out: HBsAg Inhibit rate (%)
Description: (§3) The cultures were passenged by trypsinization every 4 days.
(§4) HBsAg and HBeAg in the culture medium were determined according to the protocol respectively. The culture medium (200 μl) was absorbed on beads containing antibody to HBsAg/HBeAg in the presence of the conjugate. After overnight incubation, the beads were washed 6 times with […] PBS containing 0.05% Tween-80 and incubated with 200 μl of [^125 I] anti-HBs(Hbe) overnight. The beads were washed 6 times as above. The amounts HBsAg/HBeAg as measure of cpm of [^125 I] labeled immunocomplex was counted on γ-counter.

HBeAg = experiment: microbe, parasite or virus in culture; assay type: cell-based, HBV; details: Hepatitis B virus; for inhibition at 7.81 µg/mL / inhibition at 15.63 µg/mL / inhibition at 31.25 µg/mL / inhibition at 62.5 µg/mL / inhibition at 125 µg/mL / inhibition at 250 µg/mL: read-out: HBeAg Inhibit rate (%)
Description: as §3, §4

DHBV = experiment: anti-DHBV test in ducks (serum DHBV DNA dot blot); assay type: in vivo, DHBV in Peking (Beijing) ducks
Description: One-day-old ducklings were infected with a 200 μl intravenous injection of DHBV-positive serum containing 10^11 viral genome equivalents per milliliter. Treatment began when ducklings were 7 days old. A total 89 seven-day-old viraemic ducks were distributed at random into five groups. […] Post-treatment follow-up was carried over a period of 5 days. Blood samples were obtained repectively from the leg vein of all ducks and stored at -70° C. after serum separation, prior to treatment, weekly during the treatment, and for 5 days after cessation of treatment. They were screened for presence of DHBV DNA by dot blot hybridization.
DHBV DNA in serum was analyzed by molecular hybridization using full length DHBV DNA clones in PB325. The DHBV DNA insert was purified by agarose gel electrophoresis after digestion with EcoRI. The DHBV DNA was radiolabeled with α^32 P-dCTP random oligopriming with Klenow fragment. Dot blot hybridization was carried out by the method of Scotto et al. Briefly, an aliquot (200 μl) serum was spotted onto a nylon membrane (Hybond-N, Amersham International, England) in dot blot manifold and denatured with 0.5 M NaOH--NaCl at room temperature for 30 min. Each spotted sample was neutralized in 1M Tris.HCl-1.5M NaCl (pH8.0). The DNA on the membrane was fixed by heating at 80° C. for 2 h, and prehybridization at 37° C. overnight in 50% formamide, 5×Denhardt's, 6×SSC,[…], 0.5% SDS and 10 mg/ml of calf thymus DNA. Hybridization was initiated by adding DHBV [^32 P] DNA probes at 10^6 cpm/ml at the same prehybridization conditions overnight. The membrane was washed in 3×SSC-0.1% SDS at room temperature, 42° C. and 65° C. for 10 min respectively. After hybridization the membranes were air-dried and exposed for periods of up to 14 days at -70° C. with Kodak film with an enhancer screen. The amount of viral DNA were assayed by both densitometry and image analysis of autoradiographic membranes.

With O=C(/C=C/c1ccc(O)c(O)c1)OC1CC(OC(=O)/C=C/c2ccc(O)c(O)c2)(C(=O)O)CC(O)C1O (centres unmarked) [Compound A, 1,5-di-O-caffeoylquinic acid] the “cytotoxicity to MT4 cells” value (MT4 cells) was “markedly cytotoxic”, the inhibition at 1.56 µg/mL (HIV-1; read-out: Inhibit rate (%), 1.56 μg/ml, 1000 TCID50 (first column pair), 7 days) was 7.2% and the inhibition at 1.56 µg/mL (HIV-1; read-out: Inhibit rate (%), 1.56 μg/ml, 1000 TCID50 (second column pair), 7 days) was 8.1%. For the same compound, the inhibition at 3.12 µg/mL (HIV-1; read-out: Inhibit rate (%), 3.12 μg/ml, 1000 TCID50 (first column pair), 7 days) was 21.1%, the inhibition at 3.12 µg/mL (HIV-1; read-out: Inhibit rate (%), 3.12 μg/ml, 1000 TCID50 (second column pair), 7 days) was 19% and the inhibition at 6.25 µg/mL (HIV-1; read-out: Inhibit rate (%), 6.25 μg/ml, 1000 TCID50 (first column pair), 7 days) was 40%. For the same compound, the inhibition at 6.25 µg/mL (HIV-1; read-out: Inhibit rate (%), 6.25 μg/ml, 1000 TCID50 (second column pair), 7 days) was 44.3%, the inhibition at 12.5 µg/mL (HIV-1; read-out: Inhibit rate (%), 12.5 μg/ml, 1000 TCID50 (first column pair), 7 days) was 55% and the inhibition at 12.5 µg/mL (HIV-1; read-out: Inhibit rate (%), 12.5 μg/ml, 1000 TCID50 (second column pair), 7 days) was 56.5%. For the same compound, the inhibition at 25 µg/mL (HIV-1; read-out: Inhibit rate (%), 25 μg/ml, 1000 TCID50 (first column pair), 7 days) was 69.9%, the inhibition at 25 µg/mL (HIV-1; read-out: Inhibit rate (%), 25 μg/ml, 1000 TCID50 (second column pair), 7 days) was 63.7% and the inhibition at 50 µg/mL (HIV-1; read-out: Inhibit rate (%), 50 μg/ml, 1000 TCID50 (first column pair), 7 days) was 74.8%. It also gave an inhibition at 50 µg/mL (HIV-1; read-out: Inhibit rate (%), 50 μg/ml, 1000 TCID50 (second column pair), 7 days) of 60.6%, an inhibition at 100 µg/mL (HIV-1; read-out: Inhibit rate (%), 100 μg/ml, 1000 TCID50 (first column pair), 7 days) of 61.5% and an inhibition at 100 µg/mL (HIV-1; read-out: Inhibit rate (%), 100 μg/ml, 1000 TCID50 (second column pair), 7 days) of 57.7%. It also gave an inhibition at 7.81 µg/mL (HBsAg; 96 h) of 17.2%, an inhibition at 15.63 µg/mL (HBsAg; 96 h) of 26% and an inhibition at 31.25 µg/mL (HBsAg; 96 h) of 37.2 ± 2.86%. The inhibition at 62.5 µg/mL (HBsAg; 96 h) was 47.5 ± 1.17%, the inhibition at 125 µg/mL (HBsAg; 96 h) was 57% and the inhibition at 250 µg/mL (HBsAg; 96 h) was 62.3 ± 2.22%. For the same compound, the inhibition at 7.81 µg/mL (HBsAg; 288 h) was 24.2 ± 4.63%, the inhibition at 15.63 µg/mL (HBsAg; 288 h) was 31.4 ± 3.2% and the inhibition at 31.25 µg/mL (HBsAg; 288 h) was 36.1%. For the same compound, the inhibition at 62.5 µg/mL (HBsAg; 288 h) was 50.1 ± 1.28%, the inhibition at 125 µg/mL (HBsAg; 288 h) was 58.3% and the inhibition at 250 µg/mL (HBsAg; 288 h) was 66.6%. It also gave an inhibition at 7.81 µg/mL (HBsAg; […]) of 18.5%, an inhibition at 15.63 µg/mL (HBsAg; […]) of 27.6% and an inhibition at 31.25 µg/mL (HBsAg; […]) of 35.8 ± 1.9%. The inhibition at 62.5 µg/mL (HBsAg; […]) was 46.7 ± 2.03%, the inhibition at 125 µg/mL (HBsAg; […]) was 55 ± 2.08% and the inhibition at 250 µg/mL (HBsAg; […]) was 68.8 ± 4.68%. It also gave an IC50 (HBsAg; read-out: IC50, production of HBsAg) of 21 to 165 µg/mL (≈ 40.7 to 319 µM), an IC50 (HBsAg; read-out: IC50 for inhibition of production of HBsAg) of 21 to 165 µg/mL (≈ 40.7 to 319 µM) and an inhibition at 7.81 µg/mL (HBeAg; 96 h) of 8.94 ± 4.29%. The inhibition at 15.63 µg/mL (HBeAg; 96 h) was 19.1 ± 3.89%, the inhibition at 31.25 µg/mL (HBeAg; 96 h) was 34.5 ± 6.66% and the inhibition at 62.5 µg/mL (HBeAg; 96 h) was 41 ± 3.68%. The inhibition at 125 µg/mL (HBeAg; 96 h) was 47.4 ± 1.09%, the inhibition at 250 µg/mL (HBeAg; 96 h) was 64.2 ± 2.03% and the inhibition at 7.81 µg/mL (HBeAg; 288 h) was 15.9 ± 2.4%. The inhibition at 15.63 µg/mL (HBeAg; 288 h) was 27.8 ± 2.23%, the inhibition at 31.25 µg/mL (HBeAg; 288 h) was 30.5 ± 3.55% and the inhibition at 62.5 µg/mL (HBeAg; 288 h) was 47.3 ± 0.81%. It also gave an inhibition at 125 µg/mL (HBeAg; 288 h) of 54.5 ± 1.01%, an inhibition at 250 µg/mL (HBeAg; 288 h) of 66.5 ± 0.9% and an inhibition at 7.81 µg/mL (HBeAg; […]) of 10.4 ± 2.05%. For the same compound, the inhibition at 15.63 µg/mL (HBeAg; […]) was 31.7 ± 7.1%, the inhibition at 31.25 µg/mL (HBeAg; […]) was 41.8 ± 2.47% and the inhibition at 62.5 µg/mL (HBeAg; […]) was 45.2 ± 2.47%. It also gave an inhibition at 125 µg/mL (HBeAg; […]) of 52.5 ± 1.89%, an inhibition at 250 µg/mL (HBeAg; […]) of 64.7 ± 2.28% and an IC50 (HBeAg; read-out: IC50, production of HBeAg) of 21 to 78 µg/mL (≈ 40.7 to 151 µM). For the same compound, the “inhibition of DHBV DNA” value (DHBV; 50 mg.kg of body weight^-1.day^-1) was “strange inhibition of DHBV DNA” and the inhibition of viraemia (DHBV; 50 mg.kg of body weight^-1.day^-1, day 14) was 87%.
